Source: ChEMBL document CHEMBL1201862, “PubChem BioAssay data set” (2004)
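These data come from cells grown in 96-well plates and exposed to compound for 48 hours at five concentrations. Here, GI50 denotes the concentration required for 50% inhibition of growth.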 The source made the active and inactive calls. Cut-off read from the data, not from the text of the source: active = GI50 up to about 1.1 µM and inactive = higher. Where a SMILES comes first, the peptide text is derived from it.

Legend:
Assay in all cases: NCI anticancer screen, dose series, 48 h
786-0 = test system: 786-0
A549 = test system: A549
ACHN = test system: ACHN
BT-549 = test system: BT-549
CAKI-1 = test system: CAKI-1
CCRF-CEM = test system: CCRF-CEM
COLO 205 = test system: COLO 205
DU-145 = test system: DU-145
EKVX = test system: EKVX
HCC 2998 = test system: HCC 2998
HCT-116 = test system: HCT-116
HCT-15 = test system: HCT-15
HL-60 = test system: HL-60
HOP-92 = test system: HOP-92
HT-29 = test system: HT-29
Hs-578T = test system: Hs-578T
K562 = test system: K562
KM12 = test system: KM12
LOX IMVI = test system: LOX IMVI
M14 = test system: M14
MCF7 = test system: MCF7
MDA-MB-231 = test system: MDA-MB-231
MDA-MB-435 = test system: MDA-MB-435
MDA-N = test system: MDA-N
MOLT-4 = test system: MOLT-4
Malme-3M = test system: Malme-3M
NCI-H226 = test system: NCI-H226
NCI-H23 = test system: NCI-H23
NCI-H460 = test system: NCI-H460
NCI-H522 = test system: NCI-H522
NCI/ADR-RES = test system: NCI/ADR-RES
OVCAR-3 = test system: OVCAR-3
OVCAR-4 = test system: OVCAR-4
OVCAR-5 = test system: OVCAR-5
OVCAR-8 = test system: OVCAR-8
PC-3 = test system: PC-3
RXF 393 = test system: RXF 393
SF-268 = test system: SF-268
SF-295 = test system: SF-295
SF-539 = test system: SF-539
SK-MEL-28 = test system: SK-MEL-28
SK-MEL-2 = test system: SK-MEL-2
SK-MEL-5 = test system: SK-MEL-5
SK-OV-3 = test system: SK-OV-3
SN12C = test system: SN12C
SNB-19 = test system: SNB-19
SNB-75 = test system: SNB-75
SR = test system: SR
SW-620 = test system: SW-620
T47D = test system: T47D
TK-10 = test system: TK-10
U-251 = test system: U-251
UACC-257 = test system: UACC-257
UACC-62 = test system: UACC-62
UO-31 = test system: UO-31
A498 = test system: A498
HOP-62 = test system: HOP-62
IGROV-1 = test system: IGROV-1
RPMI-8226 = test system: RPMI-8226

C=CC(C)(C)c1cc([C@@H]2COc3cc(O)ccc3C2=O)c(O)c(O)c1OC
GI50 (786-0): 14.3 µM (inactive)
GI50 (A549): 33.7 µM (inactive)
GI50 (ACHN): 17.6 µM (inactive)
GI50 (BT-549): 18 µM (inactive)
GI50 (CAKI-1): 13.2 µM (inactive)
GI50 (CCRF-CEM): 41.7 µM (inactive)
GI50 (COLO 205): 26.7 µM (inactive)
GI50 (DU-145): 20.7 µM (inactive)
GI50 (EKVX): 28.6 µM (inactive)
GI50 (HCC 2998): 61.8 µM (inactive)
GI50 (HCT-116): 16.9 µM (inactive)
GI50 (HCT-15): 16.5 µM
GI50 (HL-60): 22.7 µM (inactive)
GI50 (HOP-92): 18.8 µM (inactive)
GI50 (HT-29): 21.9 µM (inactive)
GI50 (Hs-578T): 39 µM (inactive)
GI50 (K562): 34.8 µM (inactive)
GI50 (KM12): 19.8 µM (inactive)
GI50 (LOX IMVI): 16.2 µM (inactive)
GI50 (M14): 22.3 µM (inactive)
GI50 (MCF7): 17.4 µM (inactive)
GI50 (MDA-MB-231): 25.2 µM (inactive)
GI50 (MDA-MB-435): 19.3 µM (inactive)
GI50 (MDA-N): 22.2 µM (inactive)
GI50 (MOLT-4): 25.7 µM (inactive)
GI50 (Malme-3M): 30.5 µM (inactive)
GI50 (NCI-H226): 39.3 µM (inactive)
GI50 (NCI-H23): 17.1 µM (inactive)
GI50 (NCI-H460): 66.4 µM (inactive)
GI50 (NCI-H522): 17 µM (inactive)
GI50 (NCI/ADR-RES): 24.8 µM (inactive)
GI50 (OVCAR-3): 15.8 µM (inactive)
GI50 (OVCAR-4): 16.9 µM (inactive)
GI50 (OVCAR-5): 31.4 µM (inactive)
GI50 (OVCAR-8): 16.4 µM (inactive)
GI50 (PC-3): 18.7 µM (inactive)
GI50 (RXF 393): 4.85 µM (inactive)
GI50 (SF-268): 18.2 µM (inactive)
GI50 (SF-295): 39.4 µM (inactive)
GI50 (SF-539): 24.9 µM (inactive)
GI50 (SK-MEL-28): 27.8 µM (inactive)
GI50 (SK-MEL-2): 22.5 µM (inactive)
GI50 (SK-MEL-5): 19.7 µM (inactive)
GI50 (SK-OV-3): 29.1 µM (inactive)
GI50 (SN12C): 17.6 µM (inactive)
GI50 (SNB-19): 23.5 µM (inactive)
GI50 (SNB-75): 27.4 µM (inactive)
GI50 (SR): 22.3 µM (inactive)
GI50 (SW-620): 26.7 µM (inactive)
GI50 (T47D): 25.4 µM (inactive)
GI50 (TK-10): > 100 µM (inactive)
GI50 (U-251): 20.2 µM (inactive)
GI50 (UACC-257): 61.7 µM (inactive)
GI50 (UACC-62): 18.1 µM (inactive)
GI50 (UO-31): 15.9 µM (inactive)

CCC(C)C(NC(=O)C1CCCN1C(=O)C(CC(C)C)NC(=O)C(CC(C)C)NC(=O)C(N)CC(C)C)C(=O)NC(C(=O)NCC(=O)NC(CC(N)=O)C(=O)NC(CC(C)C)C(=O)NC(CC(C)C)C(=O)NC(CC(C)C)C(N)=O)C(C)C (centres undefined) (H-LLLPIVGNLLL-NH2; configuration not given here)
GI50 (786-0): > 50 µM (inactive)
GI50 (A498): > 50 µM (inactive)
GI50 (A549): > 50 µM (inactive)
GI50 (ACHN): > 50 µM (inactive)
GI50 (BT-549): > 50 µM (inactive)
GI50 (CAKI-1): > 50 µM (inactive)
GI50 (CCRF-CEM): > 50 µM (inactive)
GI50 (COLO 205): > 50 µM (inactive)
GI50 (DU-145): > 50 µM (inactive)
GI50 (EKVX): > 50 µM (inactive)
GI50 (HCT-116): > 50 µM (inactive)
GI50 (HCT-15): > 50 µM
GI50 (HL-60): > 50 µM (inactive)
GI50 (HOP-62): > 50 µM (inactive)
GI50 (HOP-92): > 50 µM (inactive)
GI50 (HT-29): > 50 µM (inactive)
GI50 (Hs-578T): > 50 µM (inactive)
GI50 (IGROV-1): > 50 µM (inactive)
GI50 (KM12): > 50 µM (inactive)
GI50 (LOX IMVI): > 50 µM (inactive)
GI50 (M14): > 50 µM (inactive)
GI50 (MCF7): > 50 µM (inactive)
GI50 (MDA-MB-231): > 50 µM (inactive)
GI50 (MDA-MB-435): > 50 µM (inactive)
GI50 (MDA-N): > 50 µM (inactive)
GI50 (MOLT-4): > 50 µM (inactive)
GI50 (Malme-3M): > 50 µM (inactive)
GI50 (NCI-H226): > 50 µM (inactive)
GI50 (NCI-H23): > 50 µM (inactive)
GI50 (NCI-H522): > 50 µM (inactive)
GI50 (NCI/ADR-RES): > 50 µM (inactive)
GI50 (OVCAR-3): > 50 µM (inactive)
GI50 (OVCAR-4): > 50 µM (inactive)
GI50 (OVCAR-5): > 50 µM (inactive)
GI50 (OVCAR-8): > 50 µM (inactive)
GI50 (PC-3): > 50 µM (inactive)
GI50 (RPMI-8226): > 50 µM (inactive)
GI50 (SF-268): > 50 µM (inactive)
GI50 (SF-295): > 50 µM (inactive)
GI50 (SF-539): > 50 µM (inactive)
GI50 (SK-MEL-28): > 50 µM (inactive)
GI50 (SK-MEL-2): > 50 µM (inactive)
GI50 (SK-MEL-5): > 50 µM (inactive)
GI50 (SK-OV-3): > 50 µM (inactive)
GI50 (SN12C): > 50 µM (inactive)
GI50 (SNB-19): > 50 µM (inactive)
GI50 (SR): > 50 µM (inactive)
GI50 (SW-620): > 50 µM (inactive)
GI50 (T47D): > 50 µM (inactive)
GI50 (TK-10): > 50 µM (inactive)
GI50 (U-251): > 50 µM (inactive)
GI50 (UACC-257): > 50 µM (inactive)
GI50 (UACC-62): > 50 µM (inactive)
GI50 (UO-31): > 50 µM (inactive)
